The source of these data is patent publication US20170372030A9, “METHOD AND APPARATUS FOR COMPUTER MODELING OF THE INTERACTION BETWEEN AND AMONG CORTICAL AND SUBCORTICAL AREAS IN THE HUMAN BRAIN FOR THE PURPOSE OF PREDICTING THE EFFECT OF DRUGS IN PSYCHIATRIC AND COGNITIVE DISEASES” (priority 2005, published 2017).

For one experiment, the system named is 5HT1b/d autoreceptor. As to conditions: cited from earlier work; for decrease of free 5HT: maximal stimulation of 5HT1b/d autoreceptor.
The next experiment deals with α2 adrenergic receptors. To be noted: full stimulation of α2 receptors; cited from earlier work.
Experiment [1] has as its target alpha 1-adrenoreceptor. To be noted: normal rat brain in vivo, cited from earlier work.
In the next experiment the target is T1, 5HT2C receptor (Rattus norvegicus, UniProt P08909).
T1 construct: from tissue; host or cells: brain in vivo (microdialysis), value quoted from the literature
T1 sequence (P08909 33-460): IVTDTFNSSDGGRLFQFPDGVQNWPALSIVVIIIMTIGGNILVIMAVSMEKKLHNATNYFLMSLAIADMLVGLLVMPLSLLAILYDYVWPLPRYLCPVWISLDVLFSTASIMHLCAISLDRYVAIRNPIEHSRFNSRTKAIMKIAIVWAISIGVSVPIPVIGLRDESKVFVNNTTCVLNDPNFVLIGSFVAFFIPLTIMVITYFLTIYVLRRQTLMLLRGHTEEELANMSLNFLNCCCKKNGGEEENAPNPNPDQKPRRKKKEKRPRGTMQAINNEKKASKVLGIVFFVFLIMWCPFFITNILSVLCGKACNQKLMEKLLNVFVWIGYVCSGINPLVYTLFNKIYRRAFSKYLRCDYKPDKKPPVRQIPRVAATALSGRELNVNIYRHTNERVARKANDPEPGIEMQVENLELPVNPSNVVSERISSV
To be noted: microdialysis, maximal effect; cited from earlier work.

Experiment [2] has as its target T2, D2-R (Homo sapiens, UniProt P14416). As to conditions: cited from earlier work.
The next experiment deals with α2-R. To be noted: read-out: Ki for NE at the α2-R; cited from earlier work.
Experiment [3] concerns Norepinephrine Transporter (NET). To be noted: rat jejunum, cited from earlier work.
Experiment [4] has as its target alpha 1-adrenoreceptor. To be noted: nonspiking regions, human cortical membranes; read-out: affinity; cited from earlier work.
Another experiment has as its target T3, NET (Rattus norvegicus, UniProt Q63380).
T3 construct: from tissue
As to conditions: blocking the NET; cited from earlier work.

Experiment [5] deals with T2, D2-R. In words: Drug and tracer binding affinity and on/off rates at the D2-R (Table 1). As to conditions: calculated as kon × Kd.
In experiment [6] the target is receptors of the 5HT1 class. To be noted: read-out: high-affinity binding for serotonin; cited from earlier work.
For experiment [7], the system named is fast Na+ channel, persistent Na+ channel, L-type Ca++ channel. To be noted: saturating dose of 5HT (1 μM); cited from earlier work.
In the next experiment the target is 5HT-Transporter (Homo sapiens, UniProt P31645). As to conditions: read-out: Km of 5HT-Transporter; cited from earlier work.

SMILES strings stand for the structures. Like-named read-outs stand apart in the source and are kept apart here.

Broadly, the Ki is a measure of affinity in units of concentration, obtained from inhibition or displacement. As a reminder, the Km is the substrate concentration at which the rate is half of its maximum.

T2 sequence (P14416 whole entry): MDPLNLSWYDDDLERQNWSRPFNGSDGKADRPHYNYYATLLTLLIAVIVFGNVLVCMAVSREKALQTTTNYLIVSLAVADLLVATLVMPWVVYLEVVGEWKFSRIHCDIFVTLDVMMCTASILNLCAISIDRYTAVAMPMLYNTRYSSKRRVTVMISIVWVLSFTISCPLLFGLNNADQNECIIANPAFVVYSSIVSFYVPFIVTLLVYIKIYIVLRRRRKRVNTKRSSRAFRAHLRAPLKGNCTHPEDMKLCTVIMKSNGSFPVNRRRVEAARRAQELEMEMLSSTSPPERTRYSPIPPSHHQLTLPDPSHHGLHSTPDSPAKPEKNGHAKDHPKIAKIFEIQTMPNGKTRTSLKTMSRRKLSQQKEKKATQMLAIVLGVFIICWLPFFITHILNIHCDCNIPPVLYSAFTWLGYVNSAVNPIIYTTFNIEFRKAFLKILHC
Chain of 5HT-Transporter (P31645 whole entry): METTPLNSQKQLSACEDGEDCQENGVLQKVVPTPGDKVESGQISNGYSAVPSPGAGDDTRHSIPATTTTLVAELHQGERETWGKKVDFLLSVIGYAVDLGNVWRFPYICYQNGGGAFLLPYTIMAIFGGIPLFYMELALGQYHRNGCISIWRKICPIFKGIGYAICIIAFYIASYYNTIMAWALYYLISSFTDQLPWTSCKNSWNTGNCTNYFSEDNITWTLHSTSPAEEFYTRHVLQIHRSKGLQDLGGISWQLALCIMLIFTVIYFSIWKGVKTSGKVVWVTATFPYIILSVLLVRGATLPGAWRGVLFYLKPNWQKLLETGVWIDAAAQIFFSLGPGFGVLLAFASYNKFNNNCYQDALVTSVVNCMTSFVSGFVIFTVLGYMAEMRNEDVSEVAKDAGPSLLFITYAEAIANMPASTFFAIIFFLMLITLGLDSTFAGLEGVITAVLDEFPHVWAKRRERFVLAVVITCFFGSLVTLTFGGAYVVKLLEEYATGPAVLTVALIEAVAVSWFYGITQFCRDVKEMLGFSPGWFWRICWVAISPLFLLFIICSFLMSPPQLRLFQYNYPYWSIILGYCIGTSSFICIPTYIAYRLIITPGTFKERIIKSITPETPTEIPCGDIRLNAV
T3 sequence (Q63380 1-617): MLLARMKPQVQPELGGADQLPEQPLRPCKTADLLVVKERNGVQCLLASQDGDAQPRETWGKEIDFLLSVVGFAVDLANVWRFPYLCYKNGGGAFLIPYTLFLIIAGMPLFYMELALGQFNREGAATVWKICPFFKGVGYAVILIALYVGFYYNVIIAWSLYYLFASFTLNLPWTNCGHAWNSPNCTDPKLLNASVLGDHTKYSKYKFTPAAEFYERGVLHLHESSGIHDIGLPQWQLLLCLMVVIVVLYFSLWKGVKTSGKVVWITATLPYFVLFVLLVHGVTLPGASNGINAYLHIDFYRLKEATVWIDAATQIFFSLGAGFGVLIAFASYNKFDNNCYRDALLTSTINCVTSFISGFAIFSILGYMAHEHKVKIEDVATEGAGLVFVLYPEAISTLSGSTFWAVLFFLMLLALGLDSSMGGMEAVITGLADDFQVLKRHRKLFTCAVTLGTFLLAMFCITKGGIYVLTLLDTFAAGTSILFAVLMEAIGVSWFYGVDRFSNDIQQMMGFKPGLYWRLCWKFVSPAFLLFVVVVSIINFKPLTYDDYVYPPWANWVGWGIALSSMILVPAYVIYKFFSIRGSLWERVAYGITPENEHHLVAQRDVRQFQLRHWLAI

As to `CC(C)NCC(O)COc1ccccc1-n1cccc1` (stereo not drawn) [isamoltane], the “increase of free 5HT” value in the experiment with 5HT1b/d autoreceptor (maximal block of 5HT1b/d autoreceptor) was 50%.

`Clc1cccc(Cl)c1N=C1NCCN1` [clonidine]: the “reduction of 5HT firing (and subsequent PFC 5HT release)” value in the experiment with α2 adrenergic receptors was 45%.

As to `O=C1c2ccccc2CCC1CNCCc1ccc(O)c(I)c1` (stereo not drawn) [[^125I]HEAT, [^125I]iodo-2-[beta-(4-hydroxyphenyl)ethylaminomethyl]], the Kd at alpha 1-adrenoreceptor [1] (read-out: Kd (half-saturation constant), high-affinity site) is 3.6 nM; at alpha 1-adrenoreceptor [1] (read-out: Kd, low-affinity site), 668 nM. For the compound `C[C@H](N)Cn1ccc2cc(F)c(Cl)cc21` [Ro-60-0175], the “maximal reduction of free DA” value at 5HT2C receptor was 30%. Consider `CN1CCC[C@@H]1Cc1c[nH]c2ccc(Nc3ncccc3[N+](=O)[O-])cc12` [CP135,807], for which the “decrease of free 5HT” value in the experiment with 5HT1b/d autoreceptor is 45%. In the case of `O=c1ccc2[nH]cc(C3=CCNCC3)c2[nH]1` [CP93,129], in the experiment with 5HT1b/d autoreceptor, the “decrease of free 5HT” value is given as 45%. For the compound `Cc1nc2n(c(=O)c1CCN1CCC(c3noc4cc(F)ccc34)CC1)CCCC2O` (stereo not drawn) [Paliperidone], the Kd on D2-R [2] (at the D2-R, read-out: Kd) was 4.1 nM. Regarding `NC[C@H](O)c1ccc(O)c(O)c1` [norepinephrine], the Ki at α2-R was 996 nM. Moreover, the Km in experiment [3] (read-out: Km, low-affinity component (uptake 2)) was 111 µM; in [3] (read-out: Michaelis constant (Km), high-affinity component (uptake 1)), 1.72 µM. Take `COc1cc2nc(N3CCN(C(=O)c4ccco4)CC3)nc(N)c2cc1OC` [[^3H]prazosin, prazosin]: the Kd at alpha 1-adrenoreceptor [4] is 0.17 nM. Consider `COc1ccc(C(CN(C)C)C2(O)CCCCC2)cc1` (stereo not drawn) [venlafaxine], for which the “NE increase in cortex” value at NET is 498%.

With `CCN1CCC[C@H]1CNC(=O)c1c(OC)ccc(I)c1O` [IBZM], the “Koff” value at D2-R [5] is 0.0176 s⁻¹. For the same compound, the Kd at D2-R [2] (tracer, read-out: affinity of tracer for the D2-R) is 160 nM. For the compound `NCCc1c[nH]c2ccc(O)cc12` [5HT, serotonin], in experiment [6], the Kd is approximately 15 nM. Moreover, in experiment [7], the “decrease of maximum conductance of fast Na+, persistent Na+ and L-type Ca++ channel” value is listed as 20%. For the same compound, on 5HT-Transporter, the Km is 0.34 µM.
